In general, EC50 refers to the concentration needed to bring the measured effect to its halfway point.

The text below walks through data of patent publication US20250136606A1, “MODULATORS OF TRPML, THEIR COMPOSITIONS AND METHODS OF USE” (Caraway Therapeutics, Inc., priority 2021, published 2025).

In assay [1] the target is TRPML1 (Homo sapiens, UniProt Q9GZU1). The assay is described as follows: Fluorescent TRPML1 assay (Fluo4-AM calcium fluorescence in doxycycline-induced HEK-293 Trex cells). The assay is classed as cell-based. A digest of the protocol:
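First, expression of surface-targeted mutant human TRPML1 is induced in HEK-293 Trex cells with 0.5 ug/mL doxycycline the day before. Next, cells take up 1 micromolar Fluo4-AM in Ringer's with 0.1% Pluronic. Finally, they are added to compounds (6 nanomolar–20 micromolar final) in 10 mM calcium Ringer's and fluorescence is read.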

The target of another assay is T1, TRPML2 (Homo sapiens, UniProt Q8IZK6).
T1 construct: expressed in transfected cells
T1 sequence (Q8IZK6 1-566): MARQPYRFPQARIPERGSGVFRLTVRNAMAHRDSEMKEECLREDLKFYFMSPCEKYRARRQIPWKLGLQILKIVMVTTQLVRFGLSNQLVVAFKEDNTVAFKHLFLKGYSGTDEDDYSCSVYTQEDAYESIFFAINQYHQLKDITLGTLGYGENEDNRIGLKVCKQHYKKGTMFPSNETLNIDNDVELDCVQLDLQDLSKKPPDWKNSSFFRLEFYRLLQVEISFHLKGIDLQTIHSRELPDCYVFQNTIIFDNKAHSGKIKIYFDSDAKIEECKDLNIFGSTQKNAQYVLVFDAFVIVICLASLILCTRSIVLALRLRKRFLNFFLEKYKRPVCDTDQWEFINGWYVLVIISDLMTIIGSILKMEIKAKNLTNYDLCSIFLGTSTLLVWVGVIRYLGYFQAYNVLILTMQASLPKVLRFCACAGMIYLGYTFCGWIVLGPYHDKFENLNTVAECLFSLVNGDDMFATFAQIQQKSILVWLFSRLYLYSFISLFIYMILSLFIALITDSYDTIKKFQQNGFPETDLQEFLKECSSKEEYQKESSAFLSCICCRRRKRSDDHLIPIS
Briefly: Fluorescent TRPML2 assay (performed as for TRPML1, substituting the TRPML2 subtype). The assay is classed as cell-based. The method in brief: (§1)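 HEK-293 Trex, dox-induced (0.5 ug/mL), mutated for surface expression. Fluo4-AM 1 micromolar load ~60 min, dark; buffer modified Ringer's, 10 mM Ca. Cpds 20 micromolar–6 nanomolar final, half-log, n=3. Read ex 480/em 540; % activity vs controls; EC50 nonlinear fit.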

The target of the next assay is T2, TRPML3 (Homo sapiens, UniProt Q8TDD5).
T2 construct: expressed in transfected cells
T2 sequence (Q8TDD5 1-553): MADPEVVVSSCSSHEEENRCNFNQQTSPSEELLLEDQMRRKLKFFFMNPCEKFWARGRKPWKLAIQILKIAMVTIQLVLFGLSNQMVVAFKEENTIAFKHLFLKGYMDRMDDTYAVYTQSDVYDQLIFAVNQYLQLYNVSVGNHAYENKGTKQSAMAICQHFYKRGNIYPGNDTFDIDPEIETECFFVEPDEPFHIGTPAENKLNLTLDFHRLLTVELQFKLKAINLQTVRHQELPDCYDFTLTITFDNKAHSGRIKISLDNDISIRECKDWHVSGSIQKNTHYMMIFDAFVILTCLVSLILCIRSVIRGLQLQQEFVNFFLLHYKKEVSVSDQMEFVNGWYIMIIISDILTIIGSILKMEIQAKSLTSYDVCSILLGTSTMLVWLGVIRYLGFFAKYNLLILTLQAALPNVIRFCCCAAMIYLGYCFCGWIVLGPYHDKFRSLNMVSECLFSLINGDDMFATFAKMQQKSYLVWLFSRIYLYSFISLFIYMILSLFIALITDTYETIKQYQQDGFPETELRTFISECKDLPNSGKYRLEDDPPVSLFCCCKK
Briefly: Fluorescent TRPML3 assay (performed as for TRPML1, substituting the TRPML3 subtype). The assay is classed as cell-based. A digest of the protocol:
as §1

For assay [2], the system named is TRPML1. The following applies: cited from earlier work.

Some results are limits rather than exact numbers.

Chain of TRPML1 (Homo sapiens, UniProt Q9GZU1) (Q9GZU1 whole entry L15A/L16A/L577A/L578A, form open): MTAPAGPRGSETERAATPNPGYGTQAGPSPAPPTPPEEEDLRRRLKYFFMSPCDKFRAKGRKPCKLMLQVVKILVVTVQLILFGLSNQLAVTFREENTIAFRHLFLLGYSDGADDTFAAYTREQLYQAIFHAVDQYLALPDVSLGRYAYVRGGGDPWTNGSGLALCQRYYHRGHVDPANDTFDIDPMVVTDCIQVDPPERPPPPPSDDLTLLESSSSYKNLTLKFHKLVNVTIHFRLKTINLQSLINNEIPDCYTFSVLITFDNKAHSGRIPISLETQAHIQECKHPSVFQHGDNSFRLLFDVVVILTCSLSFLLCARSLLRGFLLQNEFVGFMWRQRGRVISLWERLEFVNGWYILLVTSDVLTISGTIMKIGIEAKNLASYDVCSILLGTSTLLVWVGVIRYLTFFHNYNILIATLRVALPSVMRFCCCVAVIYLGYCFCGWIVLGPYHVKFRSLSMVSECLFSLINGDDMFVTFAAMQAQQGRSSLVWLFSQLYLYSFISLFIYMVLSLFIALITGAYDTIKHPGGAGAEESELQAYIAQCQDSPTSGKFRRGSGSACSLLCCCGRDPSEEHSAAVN

`[2H]C([2H])([2H])[C@@H]1CN(c2ncnc3c2c(-c2ccccc2F)cn3-c2cc(C#N)ccn2)[C@@H](C)CN1C(=O)OC(C)(C)C` [Compound 712, tert-butyl (2R,5S)-4-(7-(4-cyanopyridin-2-yl)-5-(2-fluorophenyl)-7H-pyrrolo[2,3-d]pyrimidin-4-yl)-5-methyl-2-(methyl-d3)piperazine-1-carboxylate]: the EC50 at TRPML1 [1], at TRPML2 and on TRPML3 was under 100 nM throughout.

For `C#Cc1ccnc(-n2cc(C3CC3)c3c(N4C[C@@H](C)N(C(=O)OC(C)(C)C)C[C@@H]4C)ncnc32)c1` [Compound 715, tert-butyl (2R,5S)-4-(5-cyclopropyl-7-(4-ethynylpyridin-2-yl)-7H-pyrrolo[2,3-d]pyrimidin-4-yl)-2,5-dimethylpiperazine-1-carboxylate], the EC50 on TRPML1 [1], on TRPML2 and at TRPML3 was under 100 nM each time.

In the case of `C#Cc1ccnc(-n2cc(C(F)(F)F)c3c(N4C[C@@H](C)N(C(=O)OC(C)(C)C)C[C@@H]4C)ncnc32)c1` [Compound 716, tert-butyl (2R,5S)-4-(7-(4-ethynylpyridin-2-yl)-5-(trifluoromethyl)-7H-pyrrolo[2,3-d]pyrimidin-4-yl)-2,5-dimethylpiperazine-1-carboxylate], the EC50 is 100 to 500 nM on TRPML1 [1], 500 to 2000 nM on TRPML2 and 100 to 500 nM at TRPML3.

For `CCc1ccnc(-n2cc(C3CC3)c3c(N4C[C@@H](C)N(C(=O)OC(C)(C)C)C[C@@H]4C)ncnc32)c1` [Compound 717, tert-butyl (2R,5S)-4-(5-cyclopropyl-7-(4-ethylpyridin-2-yl)-7H-pyrrolo[2,3-d]pyrimidin-4-yl)-2,5-dimethylpiperazine-1-carboxylate], the EC50 at TRPML1 [1] is under 100 nM; on TRPML2, 100 to 500 nM; at TRPML3, under 100 nM.

Regarding `CCc1ccnc(-n2cc(C(F)(F)F)c3c(N4C[C@@H](C)N(C(=O)OC(C)(C)C)C[C@@H]4C)ncnc32)c1` [Compound 718, tert-butyl (2R,5S)-4-(7-(4-ethylpyridin-2-yl)-5-(trifluoromethyl)-7H-pyrrolo[2,3-d]pyrimidin-4-yl)-2,5-dimethylpiperazine-1-carboxylate], the EC50 lay within 100 to 500 nM on TRPML1 [1], 500 to 2000 nM on TRPML2 and 100 to 500 nM on TRPML3.

In the case of ML-SA1, the “[Ca2+] increases” value in the assay on TRPML1 [2] (HEK293 cells stably or transiently expressing TRPML1 with its lysosomal targeting sequence deleted) was “significant [Ca2+] increases”. Further, in the assay on TRPML1 [2] (TRPMLs, high concentrations needed), the “concentration needed to effectively activate TRPMLs” value was about 10 µM.
